Tests used:
[1] = target: Protein polybromo-1 (Homo sapiens) (UniProt Q86U86); settings: Compound concentration 10.0 uM, Protein concentration 2.0 uM
[2] = target: Nucleosome-remodeling factor subunit BPTF (Homo sapiens) (UniProt Q12830)
Description: Alphascreen assay. Domain start/stop: S2791-H2911

[3] = target: Protein polybromo-1 (Homo sapiens) (UniProt Q86U86); settings: Compound concentration 10.0 uM, Protein concentration 2.0 uM; remark: listed apart in the source
[4] = target: Bromodomain testis-specific protein (Homo sapiens) (UniProt Q58F21); settings: Compound concentration 10.0 uM, Protein concentration 2.0 uM
[5] = target: Transcription initiation factor TFIID subunit 1 (Homo sapiens) (UniProt P21675); settings: Compound concentration 10.0 uM, Protein concentration 2.0 uM
[6] = target: Bromodomain-containing protein 9 (Homo sapiens) (UniProt Q9H8M2); settings: Compound concentration 10.0 uM, Protein concentration 2.0 uM
[7] = target: Bromodomain and WD repeat-containing protein 1 (Homo sapiens) (UniProt Q9NSI6); settings: Compound concentration 10.0 uM, Protein concentration 2.0 uM
[8] = target: Protein polybromo-1 (Homo sapiens) (UniProt Q86U86); settings: Compound concentration 10.0 uM, Protein concentration 2.0 uM; remark: listed apart in the source
[9] = target: Bromodomain and PHD finger-containing protein 3 (Homo sapiens) (UniProt Q9ULD4); settings: Compound concentration 10.0 uM, Protein concentration 2.0 uM
[10] = target: Bromodomain adjacent to zinc finger domain protein 2A (Homo sapiens) (UniProt Q9UIF9); settings: Compound concentration 10.0 uM, Protein concentration 2.0 uM
[11] = target: Bromodomain-containing protein 2 (Homo sapiens) (UniProt P25440); settings: Compound concentration 10.0 uM, Protein concentration 2.0 uM
Sequence of Bromodomain-containing protein 2 (Homo sapiens) (P25440 whole entry, looked up): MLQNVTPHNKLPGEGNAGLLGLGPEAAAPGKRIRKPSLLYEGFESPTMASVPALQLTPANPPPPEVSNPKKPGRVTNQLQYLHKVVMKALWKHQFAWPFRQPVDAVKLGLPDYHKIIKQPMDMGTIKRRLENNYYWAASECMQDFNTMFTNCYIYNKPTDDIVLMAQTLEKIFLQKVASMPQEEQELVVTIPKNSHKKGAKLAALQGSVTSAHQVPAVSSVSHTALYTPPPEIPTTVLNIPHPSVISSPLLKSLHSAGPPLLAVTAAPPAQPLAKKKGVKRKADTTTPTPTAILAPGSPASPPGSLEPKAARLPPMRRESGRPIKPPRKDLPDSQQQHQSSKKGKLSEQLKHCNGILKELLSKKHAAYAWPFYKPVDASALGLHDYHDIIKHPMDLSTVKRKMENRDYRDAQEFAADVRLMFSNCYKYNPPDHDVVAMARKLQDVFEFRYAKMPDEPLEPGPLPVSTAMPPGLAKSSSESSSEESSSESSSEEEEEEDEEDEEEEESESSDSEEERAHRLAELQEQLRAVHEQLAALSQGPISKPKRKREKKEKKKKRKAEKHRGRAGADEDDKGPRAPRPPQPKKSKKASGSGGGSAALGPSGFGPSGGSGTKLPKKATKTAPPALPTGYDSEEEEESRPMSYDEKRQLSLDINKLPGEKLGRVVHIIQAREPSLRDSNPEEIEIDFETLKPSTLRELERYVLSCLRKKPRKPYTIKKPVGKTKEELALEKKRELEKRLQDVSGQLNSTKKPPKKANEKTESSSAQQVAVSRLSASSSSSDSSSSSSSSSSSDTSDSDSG

Peregrin (Homo sapiens) [12] = target: T1, Peregrin (Homo sapiens) (UniProt P55201); settings: Compound concentration 10.0 uM, Protein concentration 2.0 uM
T1 sequence (whole entry): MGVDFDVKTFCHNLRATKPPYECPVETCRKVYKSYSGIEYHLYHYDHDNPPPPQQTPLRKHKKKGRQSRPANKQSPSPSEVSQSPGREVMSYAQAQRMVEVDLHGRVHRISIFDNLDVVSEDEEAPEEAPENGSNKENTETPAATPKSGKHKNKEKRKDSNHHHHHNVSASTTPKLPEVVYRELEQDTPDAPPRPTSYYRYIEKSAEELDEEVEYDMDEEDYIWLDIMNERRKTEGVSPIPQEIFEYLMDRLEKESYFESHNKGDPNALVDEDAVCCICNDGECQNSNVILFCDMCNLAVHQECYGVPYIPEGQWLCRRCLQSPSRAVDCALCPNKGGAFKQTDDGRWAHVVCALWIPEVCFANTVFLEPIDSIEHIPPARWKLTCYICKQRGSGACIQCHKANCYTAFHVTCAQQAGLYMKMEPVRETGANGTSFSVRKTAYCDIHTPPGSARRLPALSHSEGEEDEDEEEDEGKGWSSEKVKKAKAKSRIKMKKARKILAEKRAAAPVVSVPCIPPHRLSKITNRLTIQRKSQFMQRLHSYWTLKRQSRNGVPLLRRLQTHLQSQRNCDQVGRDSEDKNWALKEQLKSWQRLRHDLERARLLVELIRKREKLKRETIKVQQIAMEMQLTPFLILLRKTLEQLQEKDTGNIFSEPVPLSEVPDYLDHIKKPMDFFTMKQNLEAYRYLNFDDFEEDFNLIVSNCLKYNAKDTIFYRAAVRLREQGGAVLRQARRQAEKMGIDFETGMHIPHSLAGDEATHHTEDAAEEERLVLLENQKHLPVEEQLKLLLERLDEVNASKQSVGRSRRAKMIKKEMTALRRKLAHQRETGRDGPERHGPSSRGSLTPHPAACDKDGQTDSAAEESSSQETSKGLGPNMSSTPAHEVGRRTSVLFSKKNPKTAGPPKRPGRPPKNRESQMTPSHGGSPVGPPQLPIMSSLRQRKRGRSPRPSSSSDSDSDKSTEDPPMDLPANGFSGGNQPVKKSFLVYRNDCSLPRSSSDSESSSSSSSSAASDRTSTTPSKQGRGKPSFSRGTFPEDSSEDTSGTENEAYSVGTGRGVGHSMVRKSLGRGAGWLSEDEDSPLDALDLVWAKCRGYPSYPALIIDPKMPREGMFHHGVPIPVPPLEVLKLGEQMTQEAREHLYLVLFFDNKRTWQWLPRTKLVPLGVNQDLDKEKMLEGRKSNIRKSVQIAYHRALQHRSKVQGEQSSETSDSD

[13] = target: Transcription initiation factor TFIID subunit 1-like (Homo sapiens) (UniProt Q8IZX4); settings: Compound concentration 10.0 uM, Protein concentration 2.0 uM
[14] = target: Nucleosome-remodeling factor subunit BPTF (Homo sapiens) (UniProt Q12830); settings: Compound concentration 10.0 uM, Protein concentration 2.0 uM
[15] = target: ATPase family AAA domain-containing protein 2 (Homo sapiens) (UniProt Q6PL18); settings: Compound concentration 10.0 uM, Protein concentration 2.0 uM
[16] = target: Nuclear body protein SP140-like protein (Homo sapiens) (UniProt Q9H930); settings: Compound concentration 10.0 uM, Protein concentration 2.0 uM
Peregrin (Homo sapiens) [17] = target: T1, Peregrin (Homo sapiens); assay: Alphascreen assay. Domain start/stop: M626-G740; settings: Compound concentration 4.0 uM, Protein concentration 50.0 uM
[18] = target: Histone acetyltransferase p300 (Homo sapiens) (UniProt Q09472); settings: Compound concentration 10.0 uM, Protein concentration 2.0 uM
[19] = target: Bromodomain-containing protein 4 (Homo sapiens) (UniProt O60885); settings: Compound concentration 10.0 uM, Protein concentration 2.0 uM
[20] = target: Bromodomain-containing protein 3 (Homo sapiens) (UniProt Q15059); settings: Compound concentration 10.0 uM, Protein concentration 2.0 uM
[21] = target: Histone acetyltransferase KAT2B (Homo sapiens) (UniProt Q92831); settings: Compound concentration 10.0 uM, Protein concentration 2.0 uM
[22] = target: Bromodomain-containing protein 3 (Homo sapiens) (UniProt Q15059); settings: Compound concentration 10.0 uM, Protein concentration 2.0 uM; remark: listed apart in the source
[23] = target: Protein polybromo-1 (Homo sapiens) (UniProt Q86U86); settings: Compound concentration 10.0 uM, Protein concentration 2.0 uM; remark: listed apart in the source
[24] = target: Bromodomain-containing protein 1 (Homo sapiens) (UniProt O95696); settings: Compound concentration 10.0 uM, Protein concentration 2.0 uM
[25] = target: Transcription initiation factor TFIID subunit 1-like (Homo sapiens) (UniProt Q8IZX4); settings: Compound concentration 10.0 uM, Protein concentration 2.0 uM; remark: listed apart in the source
[26] = target: ATPase family AAA domain-containing protein 2B (Homo sapiens) (UniProt Q9ULI0); settings: Compound concentration 10.0 uM, Protein concentration 2.0 uM
[27] = target: Histone-lysine N-methyltransferase 2A (Homo sapiens) (UniProt Q03164); settings: Compound concentration 10.0 uM, Protein concentration 2.0 uM
[28] = target: Chromatin remodeling regulator CECR2 (Homo sapiens) (UniProt Q9BXF3); settings: Compound concentration 10.0 uM, Protein concentration 2.0 uM
Sequence of Chromatin remodeling regulator CECR2 (Homo sapiens) (Q9BXF3 whole entry, looked up): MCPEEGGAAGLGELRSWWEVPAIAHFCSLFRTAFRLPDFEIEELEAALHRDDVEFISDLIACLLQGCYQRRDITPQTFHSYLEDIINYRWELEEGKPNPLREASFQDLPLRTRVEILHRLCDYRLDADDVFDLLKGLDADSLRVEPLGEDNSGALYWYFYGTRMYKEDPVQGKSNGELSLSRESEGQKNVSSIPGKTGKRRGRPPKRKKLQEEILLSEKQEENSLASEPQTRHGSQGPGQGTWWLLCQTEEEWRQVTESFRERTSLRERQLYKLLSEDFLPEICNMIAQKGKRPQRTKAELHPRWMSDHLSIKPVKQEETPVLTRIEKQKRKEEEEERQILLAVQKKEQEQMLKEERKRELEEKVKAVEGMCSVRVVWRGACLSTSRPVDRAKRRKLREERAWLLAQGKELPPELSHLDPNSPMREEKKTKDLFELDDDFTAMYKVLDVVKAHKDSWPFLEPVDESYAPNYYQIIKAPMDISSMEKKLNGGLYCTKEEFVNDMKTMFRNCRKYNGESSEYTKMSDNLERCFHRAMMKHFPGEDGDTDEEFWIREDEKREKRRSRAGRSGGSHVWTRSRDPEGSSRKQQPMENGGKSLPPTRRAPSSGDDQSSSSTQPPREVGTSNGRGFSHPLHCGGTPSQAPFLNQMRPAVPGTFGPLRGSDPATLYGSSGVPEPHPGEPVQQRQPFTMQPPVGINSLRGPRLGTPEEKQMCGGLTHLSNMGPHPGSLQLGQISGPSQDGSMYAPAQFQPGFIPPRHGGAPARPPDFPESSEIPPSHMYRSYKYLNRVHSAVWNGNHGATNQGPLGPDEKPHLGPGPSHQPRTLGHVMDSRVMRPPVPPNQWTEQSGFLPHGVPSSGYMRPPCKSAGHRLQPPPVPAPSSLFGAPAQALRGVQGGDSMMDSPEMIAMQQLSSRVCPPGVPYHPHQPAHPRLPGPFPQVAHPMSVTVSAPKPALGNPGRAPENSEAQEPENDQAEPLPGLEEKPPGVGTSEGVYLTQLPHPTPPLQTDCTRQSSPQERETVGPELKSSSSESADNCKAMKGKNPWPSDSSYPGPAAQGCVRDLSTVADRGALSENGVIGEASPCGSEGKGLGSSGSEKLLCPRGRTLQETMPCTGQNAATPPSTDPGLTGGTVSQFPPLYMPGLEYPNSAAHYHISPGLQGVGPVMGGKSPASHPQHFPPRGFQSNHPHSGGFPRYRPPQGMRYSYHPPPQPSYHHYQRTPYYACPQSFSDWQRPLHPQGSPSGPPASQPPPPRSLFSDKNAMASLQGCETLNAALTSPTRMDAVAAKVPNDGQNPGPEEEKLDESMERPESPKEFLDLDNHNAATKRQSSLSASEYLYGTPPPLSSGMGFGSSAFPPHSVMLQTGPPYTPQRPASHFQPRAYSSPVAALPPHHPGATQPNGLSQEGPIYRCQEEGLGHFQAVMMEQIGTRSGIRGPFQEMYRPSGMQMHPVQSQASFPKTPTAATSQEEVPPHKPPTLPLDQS

[29] = target: Histone acetyltransferase KAT2A (Homo sapiens) (UniProt Q92830); settings: Compound concentration 10.0 uM, Protein concentration 2.0 uM
[30] = target: Protein polybromo-1 (Homo sapiens) (UniProt Q86U86); settings: Compound concentration 10.0 uM, Protein concentration 2.0 uM; remark: listed apart in the source
[31] = target: Transcription initiation factor TFIID subunit 1 (Homo sapiens) (UniProt P21675); settings: Compound concentration 10.0 uM, Protein concentration 2.0 uM; remark: listed apart in the source
[32] = target: Nuclear body protein SP140 (Homo sapiens) (UniProt Q13342); settings: Compound concentration 10.0 uM, Protein concentration 2.0 uM
[33] = target: Bromodomain-containing protein 2 (Homo sapiens) (UniProt P25440); settings: Compound concentration 10.0 uM, Protein concentration 2.0 uM; remark: listed apart in the source
[34] = target: Transcription intermediary factor 1-beta (Homo sapiens) (UniProt Q13263); settings: Compound concentration 10.0 uM, Protein concentration 2.0 uM
[35] = target: Transcription intermediary factor 1-alpha (Homo sapiens) (UniProt O15164); settings: Compound concentration 10.0 uM, Protein concentration 2.0 uM
Sequence of Transcription intermediary factor 1-alpha (Homo sapiens) (O15164 whole entry, the tested form may be a part): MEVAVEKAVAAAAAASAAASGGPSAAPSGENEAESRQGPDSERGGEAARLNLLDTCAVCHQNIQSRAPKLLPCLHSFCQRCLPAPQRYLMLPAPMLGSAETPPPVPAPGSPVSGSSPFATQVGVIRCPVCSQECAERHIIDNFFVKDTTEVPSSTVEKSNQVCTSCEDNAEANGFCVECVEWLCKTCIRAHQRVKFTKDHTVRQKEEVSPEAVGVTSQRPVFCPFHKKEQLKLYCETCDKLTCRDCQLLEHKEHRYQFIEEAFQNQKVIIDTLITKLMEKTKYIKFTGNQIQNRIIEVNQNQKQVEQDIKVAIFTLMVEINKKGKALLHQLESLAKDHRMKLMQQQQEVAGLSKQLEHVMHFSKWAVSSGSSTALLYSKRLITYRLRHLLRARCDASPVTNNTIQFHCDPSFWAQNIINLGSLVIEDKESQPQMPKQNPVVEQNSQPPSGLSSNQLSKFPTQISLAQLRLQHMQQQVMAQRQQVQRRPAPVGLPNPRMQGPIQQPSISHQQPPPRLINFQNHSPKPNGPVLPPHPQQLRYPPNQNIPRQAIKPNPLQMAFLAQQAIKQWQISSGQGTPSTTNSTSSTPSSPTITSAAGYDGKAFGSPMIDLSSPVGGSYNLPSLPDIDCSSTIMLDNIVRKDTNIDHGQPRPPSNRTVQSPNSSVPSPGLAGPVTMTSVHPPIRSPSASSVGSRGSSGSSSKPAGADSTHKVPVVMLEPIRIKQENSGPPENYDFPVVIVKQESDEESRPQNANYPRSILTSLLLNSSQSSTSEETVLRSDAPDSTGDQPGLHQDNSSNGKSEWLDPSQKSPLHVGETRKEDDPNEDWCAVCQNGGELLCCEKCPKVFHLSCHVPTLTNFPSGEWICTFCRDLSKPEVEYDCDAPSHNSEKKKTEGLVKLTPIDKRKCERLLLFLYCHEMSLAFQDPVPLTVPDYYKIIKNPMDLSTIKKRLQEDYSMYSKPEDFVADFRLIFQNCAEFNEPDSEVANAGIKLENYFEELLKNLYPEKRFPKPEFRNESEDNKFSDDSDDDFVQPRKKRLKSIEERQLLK

[36] = target: Tyrosine-protein kinase BAZ1B (Homo sapiens) (UniProt Q9UIG0); settings: Compound concentration 10.0 uM, Protein concentration 2.0 uM
[37] = target: Bromodomain and WD repeat-containing protein 3 (Homo sapiens) (UniProt Q6RI45); settings: Compound concentration 10.0 uM, Protein concentration 2.0 uM
[38] = target: Bromodomain adjacent to zinc finger domain protein 2B (Homo sapiens) (UniProt Q9UIF8); settings: Compound concentration 10.0 uM, Protein concentration 2.0 uM
[39] = target: Bromodomain-containing protein 7 (Homo sapiens) (UniProt Q9NPI1); settings: Compound concentration 10.0 uM, Protein concentration 2.0 uM
[40] = target: CREB-binding protein (Homo sapiens) (UniProt Q92793); settings: Compound concentration 10.0 uM, Protein concentration 2.0 uM
Peregrin (Homo sapiens) [41] = target: T1, Peregrin (Homo sapiens); settings: Compound concentration 10.0 uM, Protein concentration 2.0 uM; remark: listed apart in the source
[42] = target: Bromodomain-containing protein 4 (Homo sapiens) (UniProt O60885); settings: Compound concentration 10.0 uM, Protein concentration 2.0 uM; remark: listed apart in the source
[43] = target: Histone-lysine N-methyltransferase ASH1L (Homo sapiens) (UniProt Q9NR48); settings: Compound concentration 10.0 uM, Protein concentration 2.0 uM
[44] = target: SWI/SNF-related matrix-associated actin-dependent regulator of chromatin subfamily A member 2 (Homo sapiens) (UniProt P51531); settings: Compound concentration 10.0 uM, Protein concentration 2.0 uM
[45] = target: Protein polybromo-1 (Homo sapiens) (UniProt Q86U86); settings: Compound concentration 10.0 uM, Protein concentration 2.0 uM; remark: listed apart in the source
[46] = target: Transcription intermediary factor 1-alpha (Homo sapiens) (UniProt O15164); settings: Compound concentration 10.0 uM, Protein concentration 2.0 uM; remark: listed apart in the source
[47] = target: Bromodomain adjacent to zinc finger domain protein 1A (Homo sapiens) (UniProt Q9NRL2); settings: Compound concentration 10.0 uM, Protein concentration 2.0 uM
[48] = target: Bromodomain-containing protein 9 (Homo sapiens) (UniProt Q9H8M2); assay: Alphascreen assay. Domain start/stop: L14-Q143; settings: Compound concentration 0.25 uM, Protein concentration 5.0 uM
[49] = target: SWI/SNF-related matrix-associated actin-dependent regulator of chromatin subfamily A member 4 (Homo sapiens) (UniProt P51532); settings: Compound concentration 10.0 uM, Protein concentration 2.0 uM
[50] = target: Chromatin remodeling regulator CECR2 (Homo sapiens) (UniProt Q9BXF3); settings: Protein concentration 19.0 uM
[51] = target: PH-interacting protein (Homo sapiens) (UniProt Q8WWQ0); settings: Compound concentration 10.0 uM, Protein concentration 2.0 uM
[52] = target: Bromodomain testis-specific protein (Homo sapiens) (UniProt Q58F21); settings: Compound concentration 10.0 uM, Protein concentration 2.0 uM; remark: listed apart in the source

Sequence of Protein polybromo-1 (Homo sapiens) (Q86U86 whole entry): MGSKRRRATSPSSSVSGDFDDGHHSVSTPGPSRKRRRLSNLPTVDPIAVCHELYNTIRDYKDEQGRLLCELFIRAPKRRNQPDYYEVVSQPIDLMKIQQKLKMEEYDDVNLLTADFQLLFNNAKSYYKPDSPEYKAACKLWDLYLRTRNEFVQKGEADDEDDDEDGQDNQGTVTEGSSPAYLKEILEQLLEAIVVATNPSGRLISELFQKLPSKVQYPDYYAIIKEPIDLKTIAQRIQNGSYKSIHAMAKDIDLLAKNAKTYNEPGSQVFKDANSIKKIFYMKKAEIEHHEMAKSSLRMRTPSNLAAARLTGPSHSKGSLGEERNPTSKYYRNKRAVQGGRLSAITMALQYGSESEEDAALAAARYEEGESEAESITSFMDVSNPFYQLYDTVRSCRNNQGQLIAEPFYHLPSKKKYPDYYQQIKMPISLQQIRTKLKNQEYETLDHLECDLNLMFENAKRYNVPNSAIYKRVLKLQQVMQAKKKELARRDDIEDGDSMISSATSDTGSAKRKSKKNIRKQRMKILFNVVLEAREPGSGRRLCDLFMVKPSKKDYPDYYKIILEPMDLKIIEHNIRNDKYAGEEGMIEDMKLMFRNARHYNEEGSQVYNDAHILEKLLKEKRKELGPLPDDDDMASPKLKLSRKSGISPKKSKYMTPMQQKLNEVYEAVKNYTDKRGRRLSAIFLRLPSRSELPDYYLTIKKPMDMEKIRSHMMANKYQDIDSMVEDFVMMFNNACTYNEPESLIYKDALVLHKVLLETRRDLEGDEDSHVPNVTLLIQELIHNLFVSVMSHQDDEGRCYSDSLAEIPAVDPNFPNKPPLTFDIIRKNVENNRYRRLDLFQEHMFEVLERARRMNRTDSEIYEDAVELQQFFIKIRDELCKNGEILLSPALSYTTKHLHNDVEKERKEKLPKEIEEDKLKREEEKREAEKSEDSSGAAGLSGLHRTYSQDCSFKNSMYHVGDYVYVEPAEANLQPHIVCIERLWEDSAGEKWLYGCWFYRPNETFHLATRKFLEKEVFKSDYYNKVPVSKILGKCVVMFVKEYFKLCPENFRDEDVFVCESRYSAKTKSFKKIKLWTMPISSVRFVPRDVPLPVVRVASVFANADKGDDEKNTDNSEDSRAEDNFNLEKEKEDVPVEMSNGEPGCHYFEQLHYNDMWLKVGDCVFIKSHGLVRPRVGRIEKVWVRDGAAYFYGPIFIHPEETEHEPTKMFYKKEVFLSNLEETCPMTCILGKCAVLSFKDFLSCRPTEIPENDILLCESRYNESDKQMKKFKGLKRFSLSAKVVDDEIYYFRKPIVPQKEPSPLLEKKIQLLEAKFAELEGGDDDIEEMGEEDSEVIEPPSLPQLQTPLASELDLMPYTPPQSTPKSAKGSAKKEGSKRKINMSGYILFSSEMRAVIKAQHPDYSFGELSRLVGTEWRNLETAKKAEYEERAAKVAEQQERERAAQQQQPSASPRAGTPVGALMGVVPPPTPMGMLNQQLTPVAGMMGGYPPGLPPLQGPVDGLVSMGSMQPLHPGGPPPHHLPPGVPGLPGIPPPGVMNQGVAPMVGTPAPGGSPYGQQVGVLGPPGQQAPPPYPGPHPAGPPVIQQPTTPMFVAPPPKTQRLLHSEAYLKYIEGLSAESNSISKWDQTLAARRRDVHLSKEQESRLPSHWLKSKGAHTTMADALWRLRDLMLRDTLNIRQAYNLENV

- ΔTm [1]: 0.74 °C
- inhibition ([2]; Compound concentration 0.25 uM, Protein concentration 20.0 uM): -2.87%
- inhibition ([2]; Compound concentration 4.0 uM, Protein concentration 19.0 uM): -1.93%
- ΔTm [3]: 0.36 °C
- ΔTm [4]: 1.74 °C
- ΔTm [5]: 0.49 °C
- ΔTm [6]: 14.4 °C
- ΔTm [7]: 0.71 °C
- ΔTm [8]: 0.54 °C
- ΔTm [9]: 1.17 °C
- ΔTm [10]: 0.67 °C
- ΔTm [11]: 2.54 °C
- ΔTm (Peregrin (Homo sapiens) [12]): 1.32 °C
- ΔTm [13]: 0.9 °C
- ΔTm [14]: 0.58 °C
- ΔTm [15]: 0.99 °C
- ΔTm [16]: 3 °C
- inhibition (Peregrin (Homo sapiens) [17]): 18.8%
- ΔTm [18]: 6.07 °C
- ΔTm [19]: 1.92 °C
- ΔTm [20]: 2.77 °C
- ΔTm [21]: 0.36 °C
- ΔTm [22]: 1.79 °C
- ΔTm [23]: 0.36 °C
- ΔTm [24]: 0.98 °C
- ΔTm [25]: 0.59 °C
- ΔTm [26]: 0.97 °C
- ΔTm [27]: 0.44 °C
- ΔTm [28]: 9.43 °C
- ΔTm [29]: 1.26 °C
- ΔTm [30]: 0.63 °C
- ΔTm [31]: 0.5 °C
- ΔTm [32]: 1.36 °C
- ΔTm [33]: 1.39 °C
- ΔTm [34]: 0.66 °C
- ΔTm [35]: 1.86 °C
- ΔTm [36]: 0.68 °C
- ΔTm [37]: 2.31 °C
- ΔTm [38]: 0.84 °C
- ΔTm [39]: 11.1 °C
- ΔTm [40]: 5.94 °C
- ΔTm (Peregrin (Homo sapiens) [41]): 2.66 °C
- ΔTm [42]: 3.6 °C
- ΔTm [43]: 1.17 °C
- ΔTm [44]: 0.72 °C
- ΔTm [45]: 0.69 °C
- ΔTm [46]: 1.09 °C
- ΔTm [47]: 0.42 °C
- inhibition [48]: 94.3%
- ΔTm [49]: 0.68 °C
- inhibition ([50]; Compound concentration 0.25 uM): 4.99%
- inhibition ([50]; Compound concentration 4.0 uM): 99.5%
- ΔTm [51]: 0.95 °C
- ΔTm [52]: 1.37 °C
SMILES: CCn1cc(-c2cccc(C(F)(F)F)c2)c2sc(C(=N)NC3CCS(=O)(=O)CC3)cc2c1=O

Reference: ChEMBL document CHEMBL4649992, “Discovery of I-BRD9, a Selective Cell Active Chemical Probe for Bromodomain Containing Protein 9 Inhibition” (J Med Chem, 2016)
